Among the data in PubChem BioAssay AID256 (DTP/NCI, 2004) are T/C values, retold here.

For the experiment, the system named is CD2F1 mice, L1210 leukemia ip, survival T/C. Put plainly: NCI In Vivo Anticancer Drug Screen. Data for tumor model L1210 Leukemia (intraperitoneal) in CD2F1 (CDF1) mice. To be noted: higher = longer survival. The method in brief:
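Ratio T/C, where T is the treated-group value and C the vehicle-dosed control value, from mice implanted with a transplantable tumor.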

Where [1] appears, read: endpoint: mean survival time, dose: 100.0 mg/kg/injection, schedule: Q01DX001 (ip), vehicle: saline with Tween-80.
[2] abbreviates: endpoint: mean survival time, dose: 200.0 mg/kg/injection, schedule: Q01DX001 (ip), vehicle: saline with Tween-80.
[3] abbreviates: endpoint: mean survival time, dose: 400.0 mg/kg/injection, schedule: Q01DX001 (ip), vehicle: saline with Tween-80.
Setting [4] is: endpoint: mean survival time, dose: 100.0 mg/kg/injection, schedule: Q01DX009 (ip), vehicle: saline with Tween-80.
[5] abbreviates: endpoint: mean survival time, dose: 200.0 mg/kg/injection, schedule: Q01DX009 (ip), vehicle: saline with Tween-80.
Where [6] appears, read: endpoint: mean survival time, dose: 400.0 mg/kg/injection, schedule: Q01DX009 (ip), vehicle: saline with Tween-80.
Setting [7] is: endpoint: mean survival time, dose: 50.0 mg/kg/injection, schedule: Q01DX009 (ip), vehicle: saline with Tween-80.
Setting [8] is: endpoint: mean survival time, dose: 100.0 mg/kg/injection, schedule: Q04DX003 (ip), vehicle: saline with Tween-80.
The mark [9] stands for this setting: endpoint: mean survival time, dose: 200.0 mg/kg/injection, schedule: Q04DX003 (ip), vehicle: saline with Tween-80.
Setting [10] is: endpoint: mean survival time, dose: 400.0 mg/kg/injection, schedule: Q04DX003 (ip), vehicle: saline with Tween-80.
Setting [11] is: endpoint: median survival time, dose: 100.0 mg/kg/injection, schedule: Q01DX005 (ip), vehicle: saline.
The mark [12] stands for this setting: endpoint: median survival time, dose: 100.0 mg/kg/injection, schedule: Q01DX009 (ip), vehicle: saline.
[13] abbreviates: endpoint: mean survival time, dose: 3.13 mg/kg/injection, schedule: Q01DX009 (ip), vehicle: saline.
[14] abbreviates: endpoint: mean survival time, dose: 6.25 mg/kg/injection, schedule: Q01DX009 (ip), vehicle: saline.

“And” between values parts separate entries of the source, which are not always exact repeats. Equal values may be shown once. Toxic doses and inconclusive results are not listed.

Consider `NC(CSS(=O)(=O)O)=NCCCCN=C(N)CSS(=O)(=O)O`, for which the T/C reads like this: (endpoint: mean survival time, dose: 6.25 mg/kg/injection, schedule: Q04DX002 (ip), vehicle: saline with Tween-80) 103 % of control; (endpoint: mean survival time, dose: 12.5 mg/kg/injection, schedule: Q04DX002 (ip), vehicle: saline with Tween-80) 106 % of control; (endpoint: mean survival time, dose: 25.0 mg/kg/injection, schedule: Q04DX002 (ip), vehicle: saline with Tween-80) 95 % of control.

Consider `BrC1=C(c2ccccc2)SC(Br)=C(c2ccccc2)S1`, for which the T/C under setting [1] was 94 % of control, the T/C under setting [2] is 87 % of control and the T/C under setting [3] was 91 % of control.

On to `C=C1C(=O)O[C@@H]2C[C@@]3(C)CC(=O)C=C(C)[C@@H]3C[C@H]12`, for which the T/C by setting is: under setting [1], 101 % of control; under setting [4], 98 % of control; under setting [2], 97 % of control; under setting [5], 98 % of control; under setting [3], 101 % of control; under setting [6], 104 % of control.

Take `NC(=O)C(F)(F)F`: the T/C by setting is: (endpoint: mean survival time, dose: 100.0 mg/kg/injection, schedule: Q01DX009 (ip), vehicle: saline) 98 % of control; (endpoint: mean survival time, dose: 200.0 mg/kg/injection, schedule: Q01DX009 (ip), vehicle: saline) 98 % of control; (endpoint: mean survival time, dose: 400.0 mg/kg/injection, schedule: Q01DX009 (ip), vehicle: saline) 100 % of control.

On to `CC[C@@]1(O)C[C@H](OC2CC(N(C)C)C(OC3CC(O)C(OC4CCC(=O)C(C)O4)C(C)O3)C(C)O2)c2c(cc3c(c2O)C(=O)c2c(O)ccc(O)c2C3=O)[C@H]1C(=O)OC` (stereo partly specified), for which the T/C was 101 % of control and 109 % of control (endpoint: mean survival time, dose: 0.25 mg/kg/injection, schedule: Q01DX009 (ip), vehicle: water); 113 % of control and 117 % of control and 119 % of control (endpoint: mean survival time, dose: 0.5 mg/kg/injection, schedule: Q01DX009 (ip), vehicle: water); 122 % of control (endpoint: mean survival time, dose: 1.0 mg/kg/injection, schedule: Q01DX009 (ip), vehicle: water); 89 % of control (endpoint: mean survival time, dose: 4.0 mg/kg/injection, schedule: Q01DX009 (ip), vehicle: water).

Consider `C=CC/C=C/CCCCCC`, for which the T/C was 114 % of control under setting [7], 96 % of control under setting [4] and 107 % of control under setting [5].

In the case of `N#CCCSc1ccccc1`, the T/C was 90 % of control under setting [8], 102 % of control under setting [9] and 96 % of control under setting [10].

For the compound `COc1cc(C2c3cc4c(cc3[C@@H](OC3OC5CO[C@@H](C)OC5C(O)C3O)[C@H]3COC(=O)C23)OCO4)cc(OC)c1OC` (stereo partly specified), the T/C is, setting by setting: (endpoint: median survival time, dose: 50.0 mg/kg/injection, schedule: Q01DX005 (ip), vehicle: saline) 164 % of control; (endpoint: median survival time, dose: 60.0 mg/kg/injection, schedule: Q01DX009 (ip), vehicle: saline) 161 % of control; under setting [11], 211 % of control; under setting [12], 277 % of control; (endpoint: median survival time, dose: 166.67 mg/kg/injection, schedule: Q01DX009 (ip), vehicle: saline) 297 % of control; (endpoint: median survival time, dose: 200.0 mg/kg/injection, schedule: Q01DX005 (ip), vehicle: saline) 211 % of control. The T/C (endpoint: median survival time, dose: 277.78 mg/kg/injection, schedule: Q01DX009 (ip), vehicle: saline) is 86 % of control.

As for `OCC1OC(n2ncc3c2ncn2ncnc32)C(O)C1O` (stereo unspecified), the T/C by setting is: (endpoint: mean survival time, dose: 12.5 mg/kg/injection, schedule: Q01DX005 (ip), vehicle: water) 90 % of control; (endpoint: mean survival time, dose: 25.0 mg/kg/injection, schedule: Q01DX005 (ip), vehicle: water) 94 % of control; (endpoint: mean survival time, dose: 50.0 mg/kg/injection, schedule: Q01DX005 (ip), vehicle: water) 101 % of control; (endpoint: mean survival time, dose: 100.0 mg/kg/injection, schedule: Q01DX005 (ip), vehicle: water) 100 % of control; (endpoint: mean survival time, dose: 200.0 mg/kg/injection, schedule: Q01DX005 (ip), vehicle: water) 113 % of control.

For the compound `CCOC(=O)N(Cl)Cl`, the T/C (endpoint: mean survival time, dose: 12.5 mg/kg/injection, schedule: Q04DX003 (ip), vehicle: saline) was 102 % of control.

As for `O=C(Nc1cc([N+](=O)[O-])ccc1O)C(O)c1ccccc1` (stereo unspecified), the T/C reads like this: (endpoint: mean survival time, dose: 12.5 mg/kg/injection, schedule: Q01DX009 (ip), vehicle: other) 95 % of control; (endpoint: mean survival time, dose: 25.0 mg/kg/injection, schedule: Q01DX009 (ip), vehicle: other) 89 % of control; (endpoint: mean survival time, dose: 50.0 mg/kg/injection, schedule: Q01DX009 (ip), vehicle: other) 86 % of control; (endpoint: mean survival time, dose: 100.0 mg/kg/injection, schedule: Q01DX009 (ip), vehicle: other) 91 % of control; (endpoint: mean survival time, dose: 200.0 mg/kg/injection, schedule: Q01DX009 (ip), vehicle: other) 91 % of control.

On to `Nc1ncnc(N)c1NC(=O)c1cccc(Cl)c1`, for which the T/C is 100 % of control (endpoint: mean survival time, dose: 25.0 mg/kg/injection, schedule: Q04DX003 (ip), vehicle: saline with Tween-80); 100 % of control (endpoint: mean survival time, dose: 50.0 mg/kg/injection, schedule: Q04DX003 (ip), vehicle: saline with Tween-80); 118 % of control and 108 % of control under setting [8].

As to `O=NNc1cccc(NN=O)n1`, the T/C is, setting by setting: (endpoint: median survival time, dose: 6.25 mg/kg/injection, schedule: Q01DX005 (ip), vehicle: saline) 115 % of control and 108 % of control; (endpoint: median survival time, dose: 12.5 mg/kg/injection, schedule: Q01DX005 (ip), vehicle: saline) 121 % of control; (endpoint: median survival time, dose: 29.0 mg/kg/injection, schedule: Q01DX005 (ip), vehicle: saline) 153 % of control; (endpoint: median survival time, dose: 44.0 mg/kg/injection, schedule: Q01DX005 (ip), vehicle: saline) 166 % of control; under setting [11], 122 % of control and 91 % of control and 98 % of control.

For `NC(=O)CCC(N)C(=O)O` (stereo unspecified), the T/C was 93 % of control (endpoint: mean survival time, dose: 1.56 mg/kg/injection, schedule: Q01DX009 (ip), vehicle: saline); 104 % of control under setting [13]; 104 % of control under setting [14]; 94 % of control (endpoint: median survival time, dose: 25.0 mg/kg/injection, schedule: Q01DX009 (ip), vehicle: saline); 106 % of control (endpoint: median survival time, dose: 50.0 mg/kg/injection, schedule: Q01DX009 (ip), vehicle: saline); 106 % of control under setting [12]. Besides, the T/C reads like this: (endpoint: median survival time, dose: 200.0 mg/kg/injection, schedule: Q01DX009 (ip), vehicle: saline) 106 % of control; (endpoint: median survival time, dose: 400.0 mg/kg/injection, schedule: Q01DX009 (ip), vehicle: saline) 104 % of control.

For the compound `COc1ccc(C(C)=O)cc1[N+](=O)[O-]`, the T/C runs as follows: under setting [4], 98 % of control; under setting [8], 96 % of control; under setting [5], 97 % of control; under setting [9], 102 % of control; under setting [10], 94 % of control.

With `NNC(=O)CC(O)(C1CC1)C1CC1`, the T/C (endpoint: mean survival time, dose: 100.0 mg/kg/injection, schedule: Q04DX002 (ip), vehicle: saline) was 112 % of control; the T/C (endpoint: mean survival time, dose: 200.0 mg/kg/injection, schedule: Q04DX002 (ip), vehicle: saline) is 96 % of control; the T/C (endpoint: mean survival time, dose: 400.0 mg/kg/injection, schedule: Q04DX002 (ip), vehicle: saline) was 100 % of control.

Take `CN(C)c1cc2c3c(c1)CCCN3CCC2`: the T/C reads like this: under setting [13], 98 % of control; under setting [14], 109 % of control; (endpoint: mean survival time, dose: 12.5 mg/kg/injection, schedule: Q01DX009 (ip), vehicle: saline) 96 % of control.

Consider `C/C=N\N=C(N)N`, for which the T/C reads like this: (endpoint: mean survival time, dose: 30.0 mg/kg/injection, schedule: Q01DX010 (ip), vehicle: saline) 96 % of control; (endpoint: mean survival time, dose: 60.0 mg/kg/injection, schedule: Q01DX009 (ip), vehicle: saline) 96 % of control; (endpoint: mean survival time, dose: 120.0 mg/kg/injection, schedule: Q01DX010 (ip), vehicle: saline) 91 % of control; (endpoint: mean survival time, dose: 240.0 mg/kg/injection, schedule: Q01DX009 (ip), vehicle: saline) 93 % of control; (endpoint: mean survival time, dose: 480.0 mg/kg/injection, schedule: Q01DX009 (ip), vehicle: saline) 93 % of control.

Take `CC(C)N(CCNc1nc(C(Cl)(Cl)Cl)nc2ccc(Cl)cc12)C(C)C`: the T/C under setting [1] is 103 % of control; the T/C under setting [4] was 96 % of control; the T/C under setting [2] was 94 % of control; the T/C under setting [5] was 96 % of control; the T/C under setting [3] was 103 % of control; the T/C under setting [6] is 95 % of control.

On to `CCOC(=O)CCCCCCCCC(=O)Nc1ccc(-n2[nH]c(=O)cc2C)cc1`, for which the T/C under setting [8] was 92 % of control, the T/C under setting [9] was 92 % of control and the T/C under setting [10] was 87 % of control.

Regarding `Cc1ccc(CCl)cc1`, the T/C is 115 % of control under setting [7] and 92 % of control under setting [4].
